Test results: ChEMBL document CHEMBL1201862, “PubChem BioAssay data set” (2004)
The source made the active and inactive calls. For most assays here, no stated cut-off is given here; in the data, actives have a measured EC50 and inactives only a lower limit.

Tests used:
[1] = target: T1, Heat shock factor protein 1 (Mus musculus, UniProt P38532); test: decrease of HSF1-responsive luciferase luminescence – cell-based, NIH3T3, dose retest, confirmation (AID 2382); assay type: functional;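 further: NIH3T3 fibroblasts with HSF1-driven luciferase reporter stressed by proteasome inhibitor MG132; luminescence from HSF1-driven luciferase expression after 8 hours of MG132 stress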
T1 sequence (P38532 whole entry): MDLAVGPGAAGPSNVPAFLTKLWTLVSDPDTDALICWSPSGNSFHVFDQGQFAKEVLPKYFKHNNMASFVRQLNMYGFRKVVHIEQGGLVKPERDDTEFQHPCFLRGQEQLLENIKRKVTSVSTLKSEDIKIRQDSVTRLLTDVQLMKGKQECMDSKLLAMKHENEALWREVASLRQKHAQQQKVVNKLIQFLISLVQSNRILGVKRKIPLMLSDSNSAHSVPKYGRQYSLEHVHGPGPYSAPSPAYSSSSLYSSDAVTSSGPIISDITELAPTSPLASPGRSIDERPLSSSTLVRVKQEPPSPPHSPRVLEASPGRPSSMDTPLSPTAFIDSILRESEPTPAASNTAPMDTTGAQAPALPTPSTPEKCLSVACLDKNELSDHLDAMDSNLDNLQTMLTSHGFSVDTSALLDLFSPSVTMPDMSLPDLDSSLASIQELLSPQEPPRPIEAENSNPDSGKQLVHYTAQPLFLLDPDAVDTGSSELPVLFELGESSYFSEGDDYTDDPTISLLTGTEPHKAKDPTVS

[2] = target: Cytochrome P450 2D6 (Homo sapiens, UniProt P10635);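 further: CYP2D6 member of a cytochrome P450 panel assay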
Sequence of Cytochrome P450 2D6 (P10635 whole entry): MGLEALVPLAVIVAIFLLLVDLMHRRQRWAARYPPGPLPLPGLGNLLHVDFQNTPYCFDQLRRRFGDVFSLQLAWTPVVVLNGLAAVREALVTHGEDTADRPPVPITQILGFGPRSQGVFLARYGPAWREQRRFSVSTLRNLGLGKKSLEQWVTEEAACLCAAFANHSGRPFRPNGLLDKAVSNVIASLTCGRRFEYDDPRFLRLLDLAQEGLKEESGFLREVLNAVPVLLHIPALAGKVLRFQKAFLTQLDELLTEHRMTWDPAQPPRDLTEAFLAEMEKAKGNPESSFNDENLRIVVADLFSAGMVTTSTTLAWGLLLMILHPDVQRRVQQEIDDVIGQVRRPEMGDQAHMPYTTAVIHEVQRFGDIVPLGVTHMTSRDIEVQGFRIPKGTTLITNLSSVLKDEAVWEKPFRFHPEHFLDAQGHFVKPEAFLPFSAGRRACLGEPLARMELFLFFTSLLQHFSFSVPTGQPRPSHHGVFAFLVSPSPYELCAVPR

[3] = target: T1, Heat shock factor protein 1; test: enhancement of HSF1-driven luciferase signal – cell-based, NIH3T3, luminescence, dose retest, confirmation (AID 435004); assay type: functional;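 further: stress induced by proteasome inhibitor MG132 added 30 min after compound; luciferase reporter driven by HSF1 response element in NIH3T3 cells; actives raise luminescence as potentiators of the MG132 stress response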
[4] = Luminescence Cell-Based Dose Retest to Confirm Inhibitors of Cancer Stem Cells. [Related pubchem assays (depositor defined):AID2717, AID2721]; assay type: functional; details: Homo sapiens
[5] = target: T2, Cytochrome P450 1A2 (Homo sapiens, UniProt P05177);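 further: PubChem cytochrome P450 panel assay, CYP1A2 panel member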
T2 sequence (P05177 whole entry): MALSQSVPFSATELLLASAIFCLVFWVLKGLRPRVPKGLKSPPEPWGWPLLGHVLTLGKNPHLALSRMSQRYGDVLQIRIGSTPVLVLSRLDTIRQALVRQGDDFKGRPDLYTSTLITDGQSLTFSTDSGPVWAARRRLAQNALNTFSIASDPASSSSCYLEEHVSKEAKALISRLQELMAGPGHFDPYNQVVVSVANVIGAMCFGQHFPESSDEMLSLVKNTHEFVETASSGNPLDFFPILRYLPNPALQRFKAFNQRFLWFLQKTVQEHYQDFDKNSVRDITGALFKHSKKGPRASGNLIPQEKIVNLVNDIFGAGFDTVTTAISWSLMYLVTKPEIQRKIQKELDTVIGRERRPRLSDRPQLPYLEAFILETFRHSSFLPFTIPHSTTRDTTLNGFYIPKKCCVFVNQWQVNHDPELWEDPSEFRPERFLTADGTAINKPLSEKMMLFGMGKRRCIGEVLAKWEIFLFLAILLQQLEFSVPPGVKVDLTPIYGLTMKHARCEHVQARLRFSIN

[6] = target: Cytochrome P450 2C9 (Homo sapiens, UniProt P11712)
Sequence of Cytochrome P450 2C9 (P11712 whole entry): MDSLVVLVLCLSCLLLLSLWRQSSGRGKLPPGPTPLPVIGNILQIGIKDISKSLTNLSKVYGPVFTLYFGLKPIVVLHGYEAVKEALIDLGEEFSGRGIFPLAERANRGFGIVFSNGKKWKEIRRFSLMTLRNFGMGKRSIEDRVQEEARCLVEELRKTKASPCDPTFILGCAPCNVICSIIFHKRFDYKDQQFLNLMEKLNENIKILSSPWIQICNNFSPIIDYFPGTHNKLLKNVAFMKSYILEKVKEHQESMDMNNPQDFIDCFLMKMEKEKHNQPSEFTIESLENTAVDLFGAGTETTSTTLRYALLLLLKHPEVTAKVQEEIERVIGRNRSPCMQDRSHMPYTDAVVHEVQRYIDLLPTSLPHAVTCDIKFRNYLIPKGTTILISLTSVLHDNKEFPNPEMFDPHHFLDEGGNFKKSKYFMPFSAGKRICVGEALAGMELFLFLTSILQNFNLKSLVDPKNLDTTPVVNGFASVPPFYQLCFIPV

[7] = NIH3T3 cell viability loss – ATP luminescence, mouse fibroblasts, counter-screen, dose response (AID 2010); assay type: functional, cell-based;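 further: cells exposed to compound for about 90 hours before reading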
[8] = Trypanosoma cruzi growth suppression in host cells – NIH3T3 host cells, beta-gal luminescence, confirmation (AID 2044); assay type: functional, cell-based;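 further: intracellular parasites grown in NIH/3T3 mouse fibroblasts as host cells; luminescent beta-galactosidase reporter signal from transgenic T. cruzi replicating inside host cells; inhibitors lower the luminescence signal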
[9] = system: Streptococcus; test: GAS UMAA2166 growth inhibition – luminescence, BacTiterGlo, counter-screen for streptokinase expression inhibitor project, dose response (AID 1915); assay type: functional, organism-based;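 further: potency for reduction of bacterial viability or growth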
[10] = system: Streptococcus sp. 'group A'; test: Streptococcus pyogenes SK(-)GAS viability under kanamycin – luminescence, BacTiterGlo, confirmation, counter-screen for streptokinase expression inhibitor project, dose response (AID 1900); assay type: functional, organism-based
[11] = target: T3, Streptokinase A (Streptococcus pyogenes serotype M1, UniProt P10520); test: viability-normalized secreted streptokinase activity reduction – plasminogen activation absorbance, OD405, dose response (AID 1914); assay type: functional, Streptococcus pyogenes M1 GAS;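 further: secreted streptokinase activity via plasminogen activation per viability signal from cell pellet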
T3 sequence (P10520 whole entry): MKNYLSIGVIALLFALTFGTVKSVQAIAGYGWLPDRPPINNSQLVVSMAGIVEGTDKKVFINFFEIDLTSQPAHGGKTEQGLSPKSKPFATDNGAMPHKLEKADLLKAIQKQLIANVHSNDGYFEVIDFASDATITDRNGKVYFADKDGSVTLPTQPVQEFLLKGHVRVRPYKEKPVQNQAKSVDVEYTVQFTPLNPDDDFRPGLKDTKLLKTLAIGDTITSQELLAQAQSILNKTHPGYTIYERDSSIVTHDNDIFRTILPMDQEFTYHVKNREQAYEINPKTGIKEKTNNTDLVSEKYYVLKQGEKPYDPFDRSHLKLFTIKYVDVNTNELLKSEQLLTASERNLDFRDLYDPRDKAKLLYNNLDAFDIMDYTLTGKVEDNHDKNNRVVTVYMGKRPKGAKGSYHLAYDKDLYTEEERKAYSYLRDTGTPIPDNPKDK

SMILES: O=C(CSC(=S)N1CCCCC1)Nc1ncc2c(n1)CCCC2=O
- EC50 [1]: > 195 µM (not active)

SMILES: CC(C)CN1CCC2(CC1)CCN(C(=O)c1cccn1C)CC2
- AC50 [2]: 12.6 µM (inconclusive)

SMILES: CC(C)(C)c1ccc(OCC(=O)NN2Cc3ccccc3C2=N)cc1
- EC50 [3]: > 260 µM (inactive)

SMILES: COc1cccc(-c2c(C(=O)N/N=C(\C)c3ccc(Cl)s3)nnn2-c2nonc2N)c1
- EC50 [3]: 51.8 µM (active)

SMILES: Cc1cc(/C=C2\SC(=S)N(Cc3ccco3)C2=O)c(C)n1-c1ccccc1
- EC50 [1]: 1.57 µM (active)
- AC50 [4]: 2.2 µM (active)

SMILES: CCOC(=O)Cn1c(=O)oc2cc(S(=O)(=O)NCCC(C)C)ccc21
- EC50 [1]: > 195 µM (not active)

SMILES: Cc1ccc(-c2nc(-c3cccnc3)sc2CC(=O)Nc2ccc3nc(C)sc3c2)cc1
- EC50 [1]: > 195 µM (not active)

SMILES: O=[N+]([O-])c1cc(C(F)(F)F)ccc1NCCc1c[nH]c2ccccc12
- AC50 [4]: 4.48 µM (active)

SMILES: Cc1ccc(C)c(S(=O)(=O)c2c(N)n(/N=C/c3ccco3)c3nc4ccccc4nc23)c1
- EC50 [3]: > 260 µM (inactive)

SMILES: COC1CCCN(C(=O)c2ccc(OC3CCN(CCc4ccccc4)CC3)cc2)C1 (configuration not stated)
- EC50 [1]: > 195 µM (not active)

SMILES: CCOC(=O)C1=CN(Cc2ccc(OC)cc2)C=C(C(=O)OCC)C1c1cccs1
- EC50 [3]: > 260 µM (inactive)

SMILES: CCCCCCSc1cccc(-c2nc3cc(C)ccn3c2NC2CCCCC2)c1
- AC50 [4]: 4.23 µM (active)

SMILES: CCCC/C(C)=C/[C@@H](NP(=O)(c1ccccc1)c1ccccc1)c1ccccc1
- AC50 [4]: 6.1 µM (active)

SMILES: COc1cccc(-c2cc3nc4c(c(N5CCC6(CC5)OCCO6)n3n2)CCCC4)c1
- AC50 [4]: 4.89 µM (active)

SMILES: CSc1cccc(NS(=O)(=O)c2cc(Br)cnc2N)c1
- EC50 [1]: > 195 µM (not active)

SMILES: C=CCNc1cc(C)oc(=O)c1C(=O)CCC
- EC50 [1]: > 195 µM (not active)

SMILES: CCC(C)c1ccc(OCc2ccc(C(=O)O)o2)cc1 (configuration not stated)
- EC50 [1]: 18.7 µM (inconclusive)

SMILES: Cc1ccc(NC(=S)Nc2cccc3ccccc23)cc1
- EC50 [1]: > 195 µM (not active)

SMILES: CC12COC3(C(=O)Nc4nccs4)CC1CCC32C (configuration not stated)
- AC50 [5]: 12.6 µM (inconclusive)
- AC50 [6]: 0.01 µM (inconclusive)

SMILES: Nc1ccc(S(=O)(=O)N2CCC(Cc3ccccc3)CC2)cc1
- EC50 [1]: > 195 µM (not active)

SMILES: O=C(CN1CCCC1)Nc1c2c(cc3c1CCC3)CCC2
- EC50 [1]: > 195 µM (not active)

SMILES: CCN(c1ccc(NC(=O)CCc2nc(O)c3c4c(sc3n2)CCCC4)cc1)C(C)C
- AC50 [4]: 4.71 µM (active)

SMILES: CCCc1ccc(NC(=O)C2CCCN(c3cnccn3)C2)cc1 (configuration not stated)
- EC50 [3]: > 260 µM (inactive)

SMILES: CC1CCCN(C(=O)c2ccccc2OC2CCN(S(C)(=O)=O)CC2)C1 (configuration not stated)
- EC50 [3]: > 260 µM (inactive)

SMILES: Cc1ccc(CNC(=O)Cn2c(=O)oc3ccccc32)o1
- AC50 [2]: 20 µM (inconclusive)

SMILES: O=C1c2ccccc2C(Nc2ccc3c(c2)OCCO3)N1c1ccc(Cl)cn1 (configuration not stated)
- EC50 [1]: > 195 µM (not active)

SMILES: CS(=O)(=O)Nc1cccc(-c2nc(NCc3cccnc3)c3ccccc3n2)c1
- AC50 [6]: 1 µM (inconclusive)

SMILES: COc1ccc(OCCn2c(C)c(/C=N/n3cnnc3)c3ccccc32)cc1
- AC50 [2]: 3.98 µM (inconclusive)

SMILES: COc1ccccc1CNc1ncnc2ccc(-c3ccccc3OC)cc12
- AC50 [2]: 12.6 µM (inconclusive)

SMILES: Cc1cccc(CN2CCC(C(=O)Nc3cccc(-c4cscn4)c3)CC2)n1
- EC50 [3]: > 260 µM (inactive)

SMILES: Cc1ccccc1C(=O)NC[C@@H]1CCCN2CCCC[C@H]12
- EC50 [1]: 18.6 µM (active)

SMILES: COc1cc(/C=N/N2CCN(Cc3ccccc3)CC2)cc(OC)c1OC(C)=O
- EC50 [1]: > 195 µM (not active)

SMILES: CN(C(=O)Cc1ccc(Cl)c(Cl)c1)[C@H](CN1CCCC1)c1ccccc1 [ICI-199,441]
- AC50 [2]: 0.0126 µM (active)
- AC50 [5]: 31.6 µM (inconclusive)

SMILES: Cc1ccc(C(=O)NCCCN2CCOCC2)cc1N1CCCC1=O
- AC50 [6]: 1.26 µM (inconclusive)

SMILES: CCOc1ccc(C)cc1S(=O)(=O)NC1CCCCC1
- EC50 [3]: > 260 µM (inactive)

SMILES: CCN1C(=O)C(CC(=O)Nc2ccc(OC)cc2)N(CCCN2CCN(c3ccc(F)cc3)CC2)C1=S (configuration not stated)
- AC50 [4]: 5.53 µM (active)

SMILES: NS(=O)(=O)c1cc2c(cc1Cl)NCNS2(=O)=O [HYDROCHLOROTHIAZIDE]
- EC50 [1]: > 195 µM (not active)

SMILES: CN(C)c1ncc2nc(-c3ccc(Cl)cc3)c(=O)n(-c3ccccc3)c2n1
- AC50 [2]: 0.631 µM (inconclusive)
- AC50 [5]: 5.01 µM (inconclusive)

SMILES: N#Cc1ccc(Cl)cc1NC(=O)CNCc1cccs1
- EC50 [3]: > 260 µM (inactive)

SMILES: CCN(CC)CCSc1nnc2c3ccccc3n(Cc3ccccc3)c2n1
- EC50 [7]: > 60 µM (not active)
- EC50 [8]: 0.284 µM (active)
- AC50 [4]: 0.829 µM (active)

SMILES: CC(NNc1ccccc1)=C1C(=O)N(C)C(=O)N(C)C1=O
- AC50 [4]: 1.81 µM (active)

SMILES: O=c1c(/C=N\NS(=O)(=O)c2ccccc2)coc2ccc(Cl)cc12
- EC50 [1]: 44.5 µM (active)

SMILES: Cc1ccc(C)c(NC(=O)CS(=O)(=O)c2cn(C)c3ccccc23)c1
- EC50 [3]: > 260 µM (inactive)

SMILES: Cc1ccc(C2=Nc3ccccc3NC(C)(c3ccc(C)o3)C2)o1 (configuration not stated)
- EC50 [3]: > 260 µM (inactive)

SMILES: O=c1ccc2ccc(Oc3ccc([N+](=O)[O-])cc3[N+](=O)[O-])cc2o1
- EC50 [3]: 13.5 µM (active)

SMILES: O=C(NNc1ccccc1)C(=O)N1CCCCC1
- AC50 [4]: 1.03 µM (active)

SMILES: COC(=O)[C@@]1(Cc2ccccc2)[C@H]2c3cc(C(=O)N4CCCC4)n(Cc4cc(F)cc5c4OCOC5)c3C[C@H]2CN1C(=O)c1ccccc1
- AC50 [2]: 10 µM (inconclusive)

SMILES: CCCCC/C=C\C/C=C\C/C=C\C/C=C\CCCC(=O)Nc1ccc(O)cc1
- EC50 [9]: 3.32 µM (active)
- EC50 [10]: 0.827 µM (active)
- EC50 [11]: > 150 µM (inconclusive)
- AC50 [5]: 20 µM (inconclusive)

SMILES: CC(=O)NN1C(=O)/C(=C\c2ccc(C)cc2)SC1=S
- AC50 [6]: 28.2 µM (inconclusive)

SMILES: Cc1ccc(NC(=S)N=Nc2c(O)n(C)c3ccc(S(=O)(=O)N4CCOCC4)cc23)cc1
- EC50 [3]: 6.25 µM (active)

SMILES: CN(C(=O)CN1C(=O)S/C(=C\c2ccccc2)C1=O)C1CCS(=O)(=O)C1 (configuration not stated)
- EC50 [1]: > 195 µM (not active)

SMILES: Nc1nc(CSC(=S)N2CCCCC2)nc(Nc2ccccc2)n1
- EC50 [1]: > 195 µM (not active)

SMILES: CC(=O)NCCn1ccc2ccccc21
- EC50 [3]: > 260 µM (inactive)

SMILES: CC(=O)N1c2ccc(C)cc2C(c2ccccc2)CC1C (configuration not stated)
- EC50 [3]: > 260 µM (inactive)

SMILES: CCNc1ncc2nc(-c3cc(F)cc(F)c3)c(=O)n(-c3ccc(OC)cc3)c2n1
- AC50 [2]: 0.158 µM (inconclusive)

SMILES: CC1CCN(CC(=O)c2cccs2)CC1
- EC50 [1]: > 195 µM (not active)

SMILES: COc1cccc(C(=O)Nc2ccc3c(C)cc(=O)oc3c2)c1
- EC50 [3]: > 260 µM (inactive)

SMILES: O=C(CN(Cc1ccccc1)S(=O)(=O)c1ccc2c(c1)OCCO2)N/N=C/c1ccc(F)cc1
- AC50 [2]: 15.8 µM (inconclusive)
- AC50 [5]: 11.2 µM (inconclusive)

SMILES: O=C1c2ccccc2C(=O)c2c1ccc(C(=O)O)c2-c1ccc2ccccc2c1
- AC50 [2]: 7.94 µM (inconclusive)
- AC50 [5]: 1.26 µM (inconclusive)

SMILES: COc1cccc(CN2CC(C(=O)NCc3ccc(C)o3)CCC2=O)c1 (configuration not stated)
- EC50 [3]: > 260 µM (inactive)

SMILES: CSc1sc(C(=O)OC(C)C)c2c1C(=O)CC(C)(C)C2
- EC50 [3]: > 260 µM (inactive)
